In PubChem BioAssay AID248 (DTP/NCI, 2004):
Several values for one entry are separate records, joined by “and”; a condition that tells them apart may be missing. Equal entries are not always repeated. Toxic doses and inconclusive results are not listed.

Tested on: L1210 leukemia ip in BDF1 mice, survival T/C
Test: NCI In Vivo Anticancer Drug Screen. Data for tumor model L1210 Leukemia (intraperitoneal) in B6D2F1 (BDF1) mice
Conditions: endpoint: mean survival time, higher = longer survival
How it was run: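 Ratio derived from survival: compound-dosed mice over vehicle-dosed mice, all bearing a transplantable tumor.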

[1] = dose: 50.0 mg/kg/injection, schedule: Q04DX003 (ip), vehicle: saline
[2] = dose: 100.0 mg/kg/injection, schedule: Q04DX003 (ip), vehicle: saline
[3] = dose: 200.0 mg/kg/injection, schedule: Q04DX003 (ip), vehicle: saline
[4] = dose: 100.0 mg/kg/injection, schedule: Q04DX002 (ip), vehicle: Klucel (hydroxypropylcellulose) (HPC)
[5] = dose: 200.0 mg/kg/injection, schedule: Q04DX002 (ip), vehicle: Klucel (hydroxypropylcellulose) (HPC)
[6] = dose: 100.0 mg/kg/injection, schedule: Q01DX009 (ip), vehicle: Klucel (hydroxypropylcellulose) (HPC)
[7] = dose: 100.0 mg/kg/injection, schedule: Q04DX003 (ip), vehicle: Klucel (hydroxypropylcellulose) (HPC)
[8] = dose: 200.0 mg/kg/injection, schedule: Q01DX009 (ip), vehicle: Klucel (hydroxypropylcellulose) (HPC)
[9] = dose: 200.0 mg/kg/injection, schedule: Q04DX003 (ip), vehicle: Klucel (hydroxypropylcellulose) (HPC)
[10] = dose: 400.0 mg/kg/injection, schedule: Q01DX009 (ip), vehicle: Klucel (hydroxypropylcellulose) (HPC)
[11] = dose: 400.0 mg/kg/injection, schedule: Q04DX003 (ip), vehicle: Klucel (hydroxypropylcellulose) (HPC)
[12] = dose: 100.0 mg/kg/injection, schedule: Q04DX003 (ip), vehicle: saline with Tween-80
[13] = dose: 200.0 mg/kg/injection, schedule: Q04DX003 (ip), vehicle: saline with Tween-80
[14] = dose: 50.0 mg/kg/injection, schedule: Q01DX009 (ip), vehicle: saline with Tween-80
[15] = dose: 100.0 mg/kg/injection, schedule: Q01DX009 (ip), vehicle: saline with Tween-80
[16] = dose: 200.0 mg/kg/injection, schedule: Q01DX009 (ip), vehicle: saline with Tween-80

## CCCCCCCCCN(CCCCCCCCC)CC(O)c1ccc2cc(Br)c3ccccc3c2c1 (stereo not drawn)
dose: 222.0 mg/kg/injection, schedule: Q01DX Z (ip), vehicle: methylcellulose (MC)
  T/C: 98 % of control
dose: 333.0 mg/kg/injection, schedule: Q01DX Z (ip), vehicle: methylcellulose (MC)
  T/C: 95 % of control
dose: 500.0 mg/kg/injection, schedule: Q01DX Z (ip), vehicle: methylcellulose (MC)
  T/C: 92 % of control

## CC(=O)Nc1ccn(C2OC(CO)C(O)C2O)c(=O)n1 (stereo not drawn)
dose: 200.0 mg/kg/injection, schedule: Q01DX009 (ip), vehicle: saline
  T/C: 166 % of control
dose: 400.0 mg/kg/injection, schedule: Q01DX009 (ip), vehicle: saline
  T/C: 163 % of control

## O=C1NC(=O)C2CC(Br)C(Br)CC12 (stereo not drawn)
dose: 2.5 mg/kg/injection, schedule: Q01DX009 (ip), vehicle: Klucel (hydroxypropylcellulose) (HPC)
  T/C: 100 % of control
dose: 2.5 mg/kg/injection, schedule: Q04DX003 (ip), vehicle: Klucel (hydroxypropylcellulose) (HPC)
  T/C: 98 % of control
dose: 5.0 mg/kg/injection, schedule: Q01DX009 (ip), vehicle: Klucel (hydroxypropylcellulose) (HPC)
  T/C: 100 % of control
dose: 5.0 mg/kg/injection, schedule: Q04DX003 (ip), vehicle: Klucel (hydroxypropylcellulose) (HPC)
  T/C: 100 % of control
dose: 10.0 mg/kg/injection, schedule: Q01DX009 (ip), vehicle: Klucel (hydroxypropylcellulose) (HPC)
  T/C: 100 % of control
dose: 10.0 mg/kg/injection, schedule: Q04DX003 (ip), vehicle: Klucel (hydroxypropylcellulose) (HPC)
  T/C: 98 % of control and 100 % of control

## CC(C)(CCC(=O)O)[N+](=O)[O-]
[1]
  T/C: 106 % of control
[2]
  T/C: 105 % of control
[3]
  T/C: 101 % of control

## COc1ccc(C(O)c2cc3ccccc3[nH]2)cc1 (stereo not drawn)
[4]
  T/C: 95 % of control
[5]
  T/C: 109 % of control
dose: 400.0 mg/kg/injection, schedule: Q04DX002 (ip), vehicle: Klucel (hydroxypropylcellulose) (HPC)
  T/C: 106 % of control

## NC(=O)c1ccc(C(F)(F)F)cc1O
[6]
  T/C: 95 % of control
[7]
  T/C: 100 % of control
[8]
  T/C: 95 % of control
[9]
  T/C: 97 % of control
[10]
  T/C: 95 % of control
[11]
  T/C: 95 % of control

## O=C(O)c1cccc(C2CCCCC2)c1
dose: 75.0 mg/kg/injection, schedule: Q01DX001 (ip), vehicle: other
  T/C: 106 % of control
dose: 150.0 mg/kg/injection, schedule: Q01DX001 (ip), vehicle: other
  T/C: 97 % of control
dose: 300.0 mg/kg/injection, schedule: Q01DX001 (ip), vehicle: other
  T/C: 101 % of control

## Cc1c([N+](=O)[O-])cc(I)cc1[N+](=O)[O-]
[12]
  T/C: 106 % of control
[13]
  T/C: 108 % of control
dose: 400.0 mg/kg/injection, schedule: Q04DX003 (ip), vehicle: saline with Tween-80
  T/C: 103 % of control

## CCCC(C(=O)O)C(O)(CC(=O)O)C(=O)O (stereo not drawn)
[2]
  T/C: 101 % of control
[3]
  T/C: 101 % of control
dose: 400.0 mg/kg/injection, schedule: Q04DX003 (ip), vehicle: saline
  T/C: 95 % of control

## COCC=C(C)C
[14]
  T/C: 106 % of control
[15]
  T/C: 92 % of control
[16]
  T/C: 95 % of control

## COc1cc2c(cc1O)C(OC)(OC)CCCC2
[14]
  T/C: 96 % of control
[15]
  T/C: 96 % of control
[16]
  T/C: 93 % of control

## Clc1ccc(-c2nn[nH]n2)cc1
[4]
  T/C: 96 % of control
[5]
  T/C: 93 % of control

## COc1ccc(N)cc1
dose: 100.0 mg/kg/injection, schedule: Q01DX009 (ip), vehicle: alcohol
  T/C: 121 % of control
dose: 200.0 mg/kg/injection, schedule: Q01DX009 (ip), vehicle: alcohol
  T/C: 88 % of control

## NC1=NCc2ccccc21
dose: 12.5 mg/kg/injection, schedule: Q04DX003 (ip), vehicle: saline
  T/C: 102 % of control
dose: 25.0 mg/kg/injection, schedule: Q04DX003 (ip), vehicle: saline
  T/C: 93 % of control
[1]
  T/C: 91 % of control

## CC(=O)NC(CCSCc1c2ccccc2c(C)c2ccccc12)C(=O)O (stereo not drawn)
[14]
  T/C: 86 % of control
[15]
  T/C: 98 % of control
[12]
  T/C: 95 % of control
[13]
  T/C: 95 % of control

## CCOC(=O)c1ccc(Nc2sc(C(=O)c3ccc(Br)cc3)c(N)c2C#N)cc1
dose: 100.0 mg/kg/injection, schedule: Q04DX002 (ip), vehicle: saline with Tween-80
  T/C: 102 % of control
dose: 200.0 mg/kg/injection, schedule: Q04DX002 (ip), vehicle: saline with Tween-80
  T/C: 94 % of control
dose: 400.0 mg/kg/injection, schedule: Q04DX002 (ip), vehicle: saline with Tween-80
  T/C: 88 % of control

## CCOC(=O)C(C(=O)OCC)C1C=CCC1 (stereo not drawn)
[6]
  T/C: 104 % of control
[7]
  T/C: 98 % of control
[8]
  T/C: 96 % of control
[9]
  T/C: 97 % of control
[10]
  T/C: 91 % of control
[11]
  T/C: 108 % of control
